From ChEMBL document CHEMBL1149301, “Benzoyl ring halogenated classical 2-amino-6-methyl-3,4-dihydro-4-oxo-5-substituted thiobenzoyl-7H-pyrrolo[2,3-d]pyrimidine antifolates as inhibitors of thymidylate synthase and as antitumor agents” (J Med Chem, 2004)

Experiments:
[1] = molecular target: T1, Dihydrofolate reductase (Homo sapiens, UniProt P00374)
T1 sequence (P00374 whole entry): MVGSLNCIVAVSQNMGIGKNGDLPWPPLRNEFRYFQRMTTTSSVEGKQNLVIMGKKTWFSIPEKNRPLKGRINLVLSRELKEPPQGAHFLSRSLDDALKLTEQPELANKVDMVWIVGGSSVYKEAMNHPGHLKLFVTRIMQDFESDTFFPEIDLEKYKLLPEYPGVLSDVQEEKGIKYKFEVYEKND

[2] = molecular target: T2, Dihydrofolate reductase (Escherichia coli, UniProt P0ABQ4)
T2 sequence (P0ABQ4 whole entry): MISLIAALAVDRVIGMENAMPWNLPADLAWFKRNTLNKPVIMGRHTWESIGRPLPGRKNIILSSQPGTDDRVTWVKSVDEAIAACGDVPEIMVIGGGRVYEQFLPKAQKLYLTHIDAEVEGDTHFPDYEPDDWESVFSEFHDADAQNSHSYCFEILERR
Description: Inhibition of Escherichia coli DHFR

[3] = tested on: CCRF-CEM; experiment: Protection against 5000 nM N-[4-[(2-amino-6-methyl-3,4-dihydro-4-oxo-7H-pyrrolo[2,3-d]pyrimidin-5-yl)thio]-2fluorobenzoyl]-L-glutamic acid-induced growth inhibition of human CCRF-CEM cells at 5 uM relative to control; type: functional; set-up: scale not given: the % may be the effect or the level left
[4] = tested on: CCRF-CEM; experiment: Growth inhibition of human CCRF-CEM cells by thymidine at 5 uM relative to control; set-up: scale not given: the % may be the effect or the level left
[5] = tested on: CCRF-CEM; experiment: Protection against 40 nM methotrexate-induced growth inhibition of human CCRF-CEM leukemia cells at 5 uM relative to control; type: functional; set-up: scale not given: the % may be the effect or the level left
[6] = tested on: CCRF-CEM; experiment: Protection against 2400 nM N-[4-[(2-amino-6-methyl-3,4-dihydro-4-oxo-7H-pyrrolo[2,3-d]pyrimidin-5-yl)thio]-2chlorobenzoyl]-L-glutamic acid-induced growth inhibition of human CCRF-CEM cells at 5 uM relative to control; type: functional; set-up: scale not given: the % may be the effect or the level left
[7] = tested on: R2; experiment: Growth inhibition of MTX-resistant human CCRF-CEM R2 cells; type: functional, cell-based
[8] = tested on: R1; experiment: Growth inhibition of MTX-resistant human CCRF-CEM R1 cells overexpressing DHFR
[9] = tested on: CCRF-CEM; experiment: Growth inhibition of MTX-resistant human CCRF-CEM R30dm cells; type: functional, cell-based
[10] = Cytotoxicity against human EKVX cells; type: cell-based
[11] = Cytotoxicity against HCC2998 cells; type: cell-based, HCC 2998; conditions: human
[12] = tested on: CCRF-CEM; experiment: Growth inhibition of human CCRF-CEM leukemia cells at 5000 nM relative to leucovorin; type: functional
[13] = tested on: CCRF-CEM; experiment: Growth inhibition of human CCRF-CEM cells; type: functional, cell-based
[14] = tested on: SF-268; experiment: Cytotoxicity against SF268 cells; type: functional; conditions: Homo sapiens
[15] = Cytotoxicity against BT549 cells; type: cell-based, BT-549; conditions: human
[16] = molecular target: Thymidylate synthase (Homo sapiens, UniProt P04818)
Description: Inhibition of human thymidylate synthase

[17] = molecular target: T3, Folylpolyglutamate synthase, mitochondrial (Homo sapiens) (UniProt Q05932); experiment: Ratio of relative Vmax to Km of human recombinant FPGS
T3 sequence (whole entry): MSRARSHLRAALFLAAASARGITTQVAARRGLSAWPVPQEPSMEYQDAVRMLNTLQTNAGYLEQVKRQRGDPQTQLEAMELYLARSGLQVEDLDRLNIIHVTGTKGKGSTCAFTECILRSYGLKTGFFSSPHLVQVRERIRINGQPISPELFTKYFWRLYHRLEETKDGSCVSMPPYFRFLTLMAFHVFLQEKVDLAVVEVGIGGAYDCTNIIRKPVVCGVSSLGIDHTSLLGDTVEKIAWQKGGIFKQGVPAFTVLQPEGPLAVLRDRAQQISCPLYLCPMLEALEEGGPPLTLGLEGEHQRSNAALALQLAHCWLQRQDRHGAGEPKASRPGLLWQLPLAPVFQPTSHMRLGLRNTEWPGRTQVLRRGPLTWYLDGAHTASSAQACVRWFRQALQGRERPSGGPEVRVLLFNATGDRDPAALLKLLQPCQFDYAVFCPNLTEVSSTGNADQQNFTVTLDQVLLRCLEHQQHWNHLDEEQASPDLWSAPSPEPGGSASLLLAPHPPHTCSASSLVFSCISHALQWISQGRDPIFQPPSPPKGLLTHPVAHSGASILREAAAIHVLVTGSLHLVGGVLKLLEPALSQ

[18] = molecular target: Thymidylate synthase (Escherichia coli, UniProt C3SWJ7); experiment: Inhibition of Escherichia coli thymidylate synthase
[19] = Cytotoxicity against human CCRF-CEM leukemia cells; type: cell-based
[20] = Cytotoxicity against NCI/ADR-RES cells; type: cell-based; conditions: human
[21] = tested on: CCRF-CEM; experiment: Growth inhibition of human CCRF-CEM leukemia cells at 2400 nM relative to leucovorin; type: functional
[22] = tested on: CCRF-CEM; experiment: Protection against methotrexate-induced effect in human CCRF-CEM cells assessed as growth inhibition at 0.1 mM; type: functional; set-up: scale not given: the % may be the effect or the level left
[23] = tested on: CCRF-CEM; experiment: Protection against compound 4- or 5-induced effect in human CCRF-CEM cells assessed as growth inhibition at […]; set-up: scale not given: the % may be the effect or the level left
[24] = substrate: Cc1[nH]c2nc(N)[nH]c(=O)c2c1Sc1ccc(C(=O)N[C@@H](CCC(=O)O)C(=O)O)c(Cl)c1; experiment: (§1) Activity of human recombinant FPGS
[25] = substrate: Cc1[nH]c2nc(N)[nH]c(=O)c2c1Sc1ccc(C(=O)N[C@@H](CCC(=O)O)C(=O)O)c(F)c1; experiment: as §1
[26] = substrate: Nc1nc(N)c2nc(CNc3ccc(C(=O)N[C@@H](CCC(=O)O)C(=O)O)cc3)cnc2n1; experiment: as §1
[27] = substrate: Cc1[nH]c2nc(N)[nH]c(=O)c2c1Sc1ccc(C(=O)N[C@@H](CCC(=O)O)C(=O)O)c(Cl)c1; experiment: (§2) Activity of human recombinant FPGS relative to AMT
[28] = substrate: Cc1[nH]c2nc(N)[nH]c(=O)c2c1Sc1ccc(C(=O)N[C@@H](CCC(=O)O)C(=O)O)c(F)c1; experiment: as §2

Chain of Thymidylate synthase (Homo sapiens, UniProt P04818) (P04818 whole entry): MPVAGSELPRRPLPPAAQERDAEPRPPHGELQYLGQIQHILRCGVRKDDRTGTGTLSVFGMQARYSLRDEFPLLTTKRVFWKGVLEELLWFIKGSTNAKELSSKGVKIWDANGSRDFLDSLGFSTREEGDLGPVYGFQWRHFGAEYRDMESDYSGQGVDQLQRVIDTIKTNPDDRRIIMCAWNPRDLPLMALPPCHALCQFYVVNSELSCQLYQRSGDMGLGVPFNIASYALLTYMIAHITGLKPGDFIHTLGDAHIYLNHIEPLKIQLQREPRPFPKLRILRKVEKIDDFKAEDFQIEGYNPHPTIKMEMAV
Chain of Thymidylate synthase (Escherichia coli, UniProt C3SWJ7) (C3SWJ7 whole entry): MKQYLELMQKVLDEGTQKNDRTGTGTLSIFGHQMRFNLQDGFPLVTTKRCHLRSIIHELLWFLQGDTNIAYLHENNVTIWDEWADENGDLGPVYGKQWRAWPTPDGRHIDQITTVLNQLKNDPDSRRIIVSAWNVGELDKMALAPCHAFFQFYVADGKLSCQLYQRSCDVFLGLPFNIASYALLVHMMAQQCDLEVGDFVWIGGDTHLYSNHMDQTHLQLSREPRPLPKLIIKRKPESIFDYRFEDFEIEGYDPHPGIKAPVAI

## Cc1[nH]c2nc(N)[nH]c(=O)c2c1Sc1ccc(C(=O)N[C@@H](CCC(=O)O)C(=O)O)cc1
[1]
  IC50: 2.1 µM
[2]
  IC50: 21 µM

## Cc1cn([C@H]2C[C@H](O)[C@@H](CO)O2)c(=O)[nH]c1=O [DOXRIBTIMINE]
[3]
  Activity: 96%
[4]
  Activity: 40%
[5]
  Activity: 10%
[6]
  Activity: 92%

## CN(Cc1cnc2nc(N)nc(N)c2n1)c1ccc(C(=O)N[C@@H](CCC(=O)O)C(=O)O)cc1 [METHOTREXATE]
[7]
  EC50: 2.1 µM
[8]
  EC50: 0.68 µM

## Cc1[nH]c2nc(N)[nH]c(=O)c2c1Sc1ccc(C(=O)N[C@@H](CCC(=O)O)C(=O)O)c(F)c1
[9]
  EC50: 0.305 µM
[10]
  GI50: 6.83 µM
[1]
  IC50: 2.1 µM
[2]
  IC50: 21 µM
[11]
  GI50: < 0.01 µM
[12]
  relative growth at 5 µM: 10
[7]
  EC50: 2.45 µM
[13]
  EC50: 0.215 µM
[8]
  EC50: 0.505 µM
[14]
  GI50: 0.347 µM
[15]
  GI50: 2.21 µM
[16]
  IC50: 0.054 µM
[17]
  Ratio: 0
[18]
  IC50: 0.72 µM
[19]
  GI50: 0.712 µM
[20]
  GI50: 0.383 µM

## Cc1[nH]c2nc(N)[nH]c(=O)c2c1Sc1ccc(C(=O)N[C@@H](CCC(=O)O)C(=O)O)c(Cl)c1
[9]
  EC50: 1.2 µM
[10]
  GI50: 0.758 µM
[1]
  IC50: 11 µM
[2]
  IC50: 40 µM
[11]
  GI50: 1.48 µM
[7]
  EC50: 12 µM
[13]
  EC50: 0.69 µM
[8]
  EC50: 1.9 µM
[14]
  GI50: 7.44 µM
[21]
  inhibition at 2.4 µM: 11%
[15]
  GI50: < 0.01 µM
[16]
  IC50: 0.051 µM
[17]
  Ratio: 0
[18]
  IC50: 5.1 µM
[20]
  GI50: 8.54 µM

## Nc1nc(=O)c2c([nH]1)NCC(CNc1ccc(C(=O)N[C@@H](CCC(=O)O)C(=O)O)cc1)N2C=O (some centres not stated) [LEUCOVORIN]
[22]
  Activity: 6%
[23]
  Activity: 90%

## Nc1nc(N)c2nc(CNc3ccc(C(=O)N[C@@H](CCC(=O)O)C(=O)O)cc3)cnc2n1
[17]
  Ratio: 0.23

B1: Folylpolyglutamate synthase, mitochondrial (Homo sapiens), Q05932 (protein)
chain: MSRARSHLRAALFLAAASARGITTQVAARRGLSAWPVPQEPSMEYQDAVRMLNTLQTNAGYLEQVKRQRGDPQTQLEAMELYLARSGLQVEDLDRLNIIHVTGTKGKGSTCAFTECILRSYGLKTGFFSSPHLVQVRERIRINGQPISPELFTKYFWRLYHRLEETKDGSCVSMPPYFRFLTLMAFHVFLQEKVDLAVVEVGIGGAYDCTNIIRKPVVCGVSSLGIDHTSLLGDTVEKIAWQKGGIFKQGVPAFTVLQPEGPLAVLRDRAQQISCPLYLCPMLEALEEGGPPLTLGLEGEHQRSNAALALQLAHCWLQRQDRHGAGEPKASRPGLLWQLPLAPVFQPTSHMRLGLRNTEWPGRTQVLRRGPLTWYLDGAHTASSAQACVRWFRQALQGRERPSGGPEVRVLLFNATGDRDPAALLKLLQPCQFDYAVFCPNLTEVSSTGNADQQNFTVTLDQVLLRCLEHQQHWNHLDEEQASPDLWSAPSPEPGGSASLLLAPHPPHTCSASSLVFSCISHALQWISQGRDPIFQPPSPPKGLLTHPVAHSGASILREAAAIHVLVTGSLHLVGGVLKLLEPALSQ
[24]
  Km: < 250 µM
[25]
  Km: < 250 µM
[26]
  Vmax: 1
[27]
  Vmax: 0
[28]
  Vmax: 0
